Laboratory results published in patent US6800637B2, “Antidepressant indolealkyl derivatives of heterocycle-fused benzodioxan methylamines” (Wyeth, priority 2002, dated 2004).
Counter-ions that a name gives are not always drawn.

Tests used:
[1] = molecular target: T1, cloned human 5HT1A receptors (Homo sapiens, UniProt P08908); test: 35S-GTPγS binding assay, membranes containing cloned human 5HT1A receptors; assay type: biochemical; conditions: for IC50: antagonist potency, reversal of the effects of the standard agonist 8-OHDPAT, read-out: 5-HT1A Function IC50; for Emax: maximum inhibitory effect, read-out: 5-HT1A Function (Imax)
T1 construct: expressed in transfected cells
T1 sequence (P08908 1-422): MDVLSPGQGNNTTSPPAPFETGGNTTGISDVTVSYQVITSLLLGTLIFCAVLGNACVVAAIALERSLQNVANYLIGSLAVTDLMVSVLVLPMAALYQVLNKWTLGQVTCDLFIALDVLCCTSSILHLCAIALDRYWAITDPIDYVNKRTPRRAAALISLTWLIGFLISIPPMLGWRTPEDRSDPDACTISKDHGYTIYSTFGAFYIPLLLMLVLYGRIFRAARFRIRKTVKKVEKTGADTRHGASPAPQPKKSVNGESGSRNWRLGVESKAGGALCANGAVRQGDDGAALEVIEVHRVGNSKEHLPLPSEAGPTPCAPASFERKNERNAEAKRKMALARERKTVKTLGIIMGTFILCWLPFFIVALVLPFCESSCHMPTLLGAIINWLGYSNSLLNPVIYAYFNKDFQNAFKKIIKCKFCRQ
Protocol: Antagonist activity at 5-HT1A receptors was established by using a ^35S-GTPγS binding assay similar to that used by Lazareno and Birdsall (Br. J. Pharmacol. 109: 1120, 1993), in which the test compound's ability to affect the binding of ^35S-GTPγS to membranes containing cloned human 5HT1A receptors was determined. Agonists produce an increase in binding whereas antagonists produce no increase but rather reverse the effects of the standard agonist 8-OHDPAT. The test compound's maximum inhibitory effect is represented as the Imax, while its potency is defined by the IC50.

human 5-HT1A receptors = molecular target: T2, human 5-HT1A receptors (Homo sapiens, UniProt P08908); test: Displacement of [3H] 8-OHDPAT from 5-HT1A receptor, CHO cells stably transfected with human 5-HT1A receptors; assay type: binding; conditions: CHO cells with human 5-HT1A receptors, read-out: 5-HT1A Receptor Affinity KI
T2 construct: expressed in transfected cells; host or cells: CHO cells
T2 sequence (P08908 1-422): T1 sequence (P08908 1-422)
From the text: High affinity for the serotonin 5-HT1A receptor was established by testing the claimed compound's ability to displace [^3H] 8-OHDPAT (dipropylaminotetralin) from the 5-HT1A serotonin receptor following a modification of the procedure of Hall et al., J. Neurochem. 44, 1685 (1985) which utilizes CHO cells stably transfected with human 5-HT1A receptors.

serotonin transporter = molecular target: T3, serotonin transporter (Rattus norvegicus, UniProt P31652); test: Displacement of 3H-paroxetine from male rat frontal cortical membranes (serotonin transporter affinity); assay type: binding; conditions: read-out: 5-HT Transporter Affinity KI
T3 construct: displace ^3H-paroxetine from male rat frontal cortical membranes; from tissue; host or cells: male rat frontal cortex membranes
T3 sequence (P31652 whole entry): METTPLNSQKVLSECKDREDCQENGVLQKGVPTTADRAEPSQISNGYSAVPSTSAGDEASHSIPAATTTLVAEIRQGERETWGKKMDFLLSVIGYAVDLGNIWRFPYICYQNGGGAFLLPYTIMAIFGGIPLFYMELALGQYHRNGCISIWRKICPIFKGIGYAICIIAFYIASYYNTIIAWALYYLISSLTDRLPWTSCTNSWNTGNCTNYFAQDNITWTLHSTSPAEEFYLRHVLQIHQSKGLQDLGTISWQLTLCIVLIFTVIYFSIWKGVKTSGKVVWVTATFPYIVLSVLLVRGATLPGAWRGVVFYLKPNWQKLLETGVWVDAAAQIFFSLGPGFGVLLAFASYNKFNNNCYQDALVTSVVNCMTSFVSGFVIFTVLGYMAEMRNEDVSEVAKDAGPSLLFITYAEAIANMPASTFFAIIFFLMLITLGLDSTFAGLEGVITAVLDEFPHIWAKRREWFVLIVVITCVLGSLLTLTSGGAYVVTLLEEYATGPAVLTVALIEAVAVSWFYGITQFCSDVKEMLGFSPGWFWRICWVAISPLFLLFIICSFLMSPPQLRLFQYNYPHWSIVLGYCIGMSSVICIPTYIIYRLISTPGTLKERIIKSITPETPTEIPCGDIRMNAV

| SMILES | melting point | further results |
| --- | --- | --- |
| Cc1nc2ccc3c(c2o1)O[C@@H](CNCCCc1c[nH]c2ccc(F)cc12)CO3 (as salt: hydrochloride) [Example 23, N-[3-(5-Fluoro-1H-indol-3-yl)propyl]-N-(2-methyl-7,8-dihydro-[1,4]dioxino[2,3-g][1,3]benzoxazol-8-ylmethyl)amine] | 91 to 93 °C | – |
| Cc1nc2ccc3c(c2o1)O[C@@H](CN(C)CCCc1c[nH]c2ccc(C#N)cc12)CO3 (as salt: hydrochloride) [Example 31, 3-{3-[M thyl-(2-methyl-7,8-dihydro-[1,4]dioxino[2,3[-g][1,3]benzoxazol-8-ylmethyl)-amino]-propyl)}-1H-indole-5-carbonitrile] | 140 °C (dec.) | – |
| Fc1ccc2[nH]cc(CCCNC[C@H]3COc4ccc5ncccc5c4O3)c2c1 (as salt: hydrochloride) [Example 14, N-(2,3-Dihydro-[1,4]dioxino[2,3-f]quinolin-2-ylmthyl)-N-[3-(5-fluoro-1H-indol-3-yl)propyl]amine] | 196 to 199 °C | – |
| Cc1ccc2c3c(ccc2n1)OC[C@H](CN(C)CCCc1csc2ccccc12)O3 (as salt: fumarate) [Example 22, N-[3-(1-Benzothien-3-yl)propyl]-N-methyl-N-(8-mthyl-2,3-dihydro-[1,4]dioxino[2,3-f]quinolin-2-ylmthyl)amin] | 123 to 127 °C | – |
| Cc1nc2ccc3c(c2o1)OC(CN(C)CCCc1c[nH]c2ccc(F)cc12)CO3 (stereo not shown) (as salt: hydrochloride) [Example 24, N-[3-(5-Fluoro-1H-indol-3-yl)propyl]-N-methyl-N-(2-methyl-7,8-dihydro[1,4]dioxino[2,3-g][1,3]benzoxazol-8-ylmethyl)amine] | 136 to 139 °C | – |
| Cc1ccc2c3c(ccc2n1)OCC(CNCCCCc1coc2ccccc12)O3 (stereo not shown) (as salt: fumarate) [Example 28, N-[4-(1-Benzofuran-3-yl)butyl]-N-(8-methyl-2,3-dihydro-[1,4]dioxino[2,3-f]quinolin-2-ylmethyl)amine] | 127 to 130 °C | – |
| Cc1nc2ccc3c(c2o1)O[C@@H](CNCCCc1c[nH]c2ccc(C#N)cc12)CO3 (as salt: hydrochloride) [Example 30, 3-{3-[(2-Methyl-7,8-dihydro-[1,4]dioxino[2,3-g][1,3]benzoxazol-8-ylmethyl)amino]-propyl}-1H-indole-5-carbanitrile] | 148 to 151 °C | – |
| Cc1ccc2c3c(ccc2n1)OC[C@H](CNCCc1coc2ccccc12)O3 (as salt: fumarate) [Example 17] | 210 to 214 °C | – |
| CCN(CCCc1c[nH]c2ccc(F)cc12)CC1COc2ccc3nc(C)ccc3c2O1 (stereo not shown) (as salt: hydrochloride) [Example 25, N-Ethyl-N-[3-(5-Fluoro-1H-indol-3-yl)propyl]-N-(8-methyl-2,3-dihydro-[1,4]dioxino[2,3-f]quinolin-2-ylmethyl)amine] | 158 to 175 °C | – |
| CCN(CCCCc1coc2ccccc12)C[C@H]1COc2ccc3nc(C)ccc3c2O1 (as salt: fumarate) [Example 52, N-[4-(1-Benzofuran-3-yl)butyl]-N-ethyl-N-{[(2S)-8-methyl-2,3-dihydro[1,4]dioxino[2,3-f]quinolin-2-yl]methyl}amine] | 87 to 92 °C | – |
| Cc1nc2ccc3c(c2o1)O[C@@H](CNCCCc1c[nH]c2ccc(F)cc12)CO3 [Example 23, N-[3-(5-Fluoro-1H-indol-3-yl)propyl]-N-(2-methyl-7,8-dihydro-[1,4]dioxino[2,3-g][1,3]benzoxazol-8-ylmethyl)amine] | – | IC50 [1]: 19.3 nM; Emax [1]: 85.8%; Ki (human 5-HT1A receptors): 0.7 nM; Ki (serotonin transporter): 1.85 nM |
| Cc1ccc2c3c(ccc2n1)OC[C@H](CNCCc1c[nH]c2ccc(Cl)cc12)O3 [Example 2] | – | IC50 [1]: 49.4 nM; Emax [1]: 37%; Ki (human 5-HT1A receptors): 19.9 nM; Ki (serotonin transporter): 34 nM |
| Cc1ccc2c3c(ccc2n1)OC[C@H](CNCCCc1c[nH]c2ccc(F)cc12)O3 [Example 3, N-[3-(5-Fluoro-1H-Indolyl-3-yl)propyl]-N-(8-methyl-2,3-dihydro-[1,4]dioxino[2,3-f]quinolin-2-ylmethyl)amine] | – | IC50 [1]: 10.6 nM; Emax [1]: 98.7%; Ki (human 5-HT1A receptors): 0.27 nM; Ki (serotonin transporter): 0.41 nM |
| Cc1ccc2c3c(ccc2n1)OCC(CNCCCc1cn(C)c2ccc(F)cc12)O3 (stereo not shown) [Example 12, N-[3-(5-Fluoro-1-methyl-1H-indol-3-yl)propyl]-N-(8-methyl-2,3-dihydro-[1,4]dioxino[2,3-f]quinolin-2-ylmethyl)amine] | – | IC50 [1]: 138 nM; Emax [1]: 81.6%; Ki (human 5-HT1A receptors): 1.55 nM; Ki (serotonin transporter): 13 nM |

More lines, main results first:

| melting point | SMILES | further results |
| --- | --- | --- |
| 193 to 196 °C | Cc1ccc2c3c(ccc2n1)OC[C@H](CNCCCc1csc2ccc(Cl)cc12)O3 (as salt: fumarate) [Example 50] | – |
| 154 to 156 °C | Cc1ccc2c3c(ccc2n1)OCC(CNCCCn1ccc2ccc(F)cc21)O3 (stereo not shown) (as salt: hydrochloride) [Example 33, [3-(6-Fluoro-indol-1-yl)-propyl]-(8-methyl-2,3-dihydro-[1,4]dioxino[2,3-f]quinolin-2-ylmethyl)amine] | – |
| 203 to 206 °C | Cc1ccc2c3c(ccc2n1)OCC(CNCCCn1ccc2c(F)cccc21)O3 (stereo not shown) (as salt: hydrochloride) [Example 46, [3-(4-Fluoro-indol-1-yl)-propyl]-(8-methyl-2,3-dihydro-[1,4]dioxino[2,3-f]quinolin-2-ylmethyl)-amine] | – |
| 140 to 144 °C | Cc1ccc2c3c(ccc2n1)OC[C@H](CNCCCCc1csc2ccc(Cl)cc12)O3 (as salt: fumarate) [Example 49] | – |
| 202 to 203 °C | Cc1ccc2c3c(ccc2n1)OCC(CNCCCc1c[nH]c2ccccc12)O3 (stereo not shown) (as salt: fumarate) [Example 6, N-[3-(1H-Indol-3-yl)propyl]-N-(8-methyl-2,3-dihydro-[1,4]dioxino[2,3-f]quinolin-2-ylmethyl)amine] | – |
| 156 to 161 °C | Cc1ccc2c3c(ccc2n1)OCC(CNCCCc1cn(C)c2ccc(F)cc12)O3 (stereo not shown) (as salt: fumarate) [Example 12, N-[3-(5-Fluoro-1-methyl-1H-indol-3-yl)propyl]-N-(8-methyl-2,3-dihydro-[1,4]dioxino[2,3-f]quinolin-2-ylmethyl)amine] | – |
| 229 to 235 °C | Cc1ccc2c3c(ccc2n1)OCC(CNCCCCc1cn(C)c2ccc(F)cc12)O3 (stereo not shown) (as salt: hydrochloride) [Example 35, [4-(5-Fluoro-1-methyl-1H-indol-3-yl)-butyl]-(8-methyl-2,3-dihydro-[1,4]dioxino[2,3-f]quinolin-2-ylmethyl)-amine] | – |
| 185 to 186 °C | Cc1ccc2c3c(ccc2n1)OC[C@H](CNCCCc1csc2ccccc12)O3 (as salt: fumarate) [Example 20] | – |
| 275 to 276 °C | Cc1ccc2c3c(ccc2n1)OCC(CN(C)CCCCc1cn(C)c2ccc(F)cc12)O3 (stereo not shown) (as salt: hydrochloride) [Example 44, [4-(5-Fluoro-1-methyl-1H-indol-3-yl)-butyl]-methyl-(8-methyl-2,3-dihydro-[1,4]dioxino[2,3-f]quinolin-2-ylmethyl)-amine] | – |
| 165 to 170 °C | Cc1ccc2c3c(ccc2n1)OC[C@H](CNCCCc1coc2ccccc12)O3 (as salt: fumarate) [Example 18] | – |
| 104 to 120 °C | Cc1ccc2c3c(ccc2n1)OCC(CN(C)CCCc1c[nH]c2ccc(F)cc12)O3 (stereo not shown) (as salt: fumarate) [Example 7, N-[3-(5-Fluoro-1H-indol-3-yl)propyl]-N-methyl-N-(8-methyl-2,3-dihydro-[1,4]dioxino[2,3-f]quinolin-2-ylmethyl)amine] | – |
| 155 to 160 °C | COc1cccc2c(CCCNCC3COc4ccc5nc(C)ccc5c4O3)coc12 (stereo not shown) (as salt: fumarate) [Example 19, N-[3-(7-Methoxy-1-benzofuran-3-yl)propyl]-N-(8-methyl-2,3-dihydro-[1,4]dioxino[2,3-f]quinolin-2-ylmethyl)amine] | – |
| 122 to 127 °C | Cc1ccc2c3c(ccc2n1)OCC(CNCCCCn1ccc2ccc(F)cc21)O3 (stereo not shown) (as salt: hydrochloride) [Example 38, [4-(6-Fluoro-indol-1-yl)-butyl]-(8-methyl-2,3-dihydro-[1,4]dioxino[2,3-f]quinolin-2-ylmethyl)-amine] | – |
| 188 to 195 °C | Cc1ccc2c3c(ccc2n1)OCC(CNCCCc1c[nH]c2c(F)cc(F)cc12)O3 (stereo not shown) (as salt: fumarate) [Example 13, N-[3-(5,7-Difluoro-1H-indol-3-yl)propyl]-N-(8-methyl-2,3-dihydro-[1,4]dioxino[2,3-f]quinolin-2-ylmethyl)amine] | – |
